# Laboratory results: US20110250273A1, “COMPOSITIONS OF PROTON PUMP INHIBITORS, KITS AND METHODS OF THEIR USE TO TREAT DIABETES” (Melford Scientific, LLC, priority 2008, published 2011)
# Marks after values point to notes of the source that are not given here.
# What was measured:
# Format in all cases: in vivo, human
# [1] = test system: Type II diabetic patients; assay: Population comparison of HgbA1c in treated diabetic patients with or without a PPI (Examples 1-3); conditions: Example 2; 53 Metformin only patients, 11 Metformin plus proton pump inhibitor
# Experimental: For a population of 347 Type II diabetic patients with recent HgbA1c measurements of an average 7.53% with a standard deviation of +/−1.77%. All were treated using insulin injections and/or a variety of oral agents, such as the above noted metformin, and other anti-diabetic medicines. The patients were treated for differing periods of time ranging from 3 months to 30 years.
# The two groups were compared using a two-Sample T test that is a classical statistical test. […] The difference between the two groups was 0.61%, which is a significant difference with a p-value of 0.002.
# 64 total patients, of which 53 patients that were treated using only Metformin for the treatment of diabetes and 11 took Metformin and a proton pump inhibitor.
# In this population, 79 patients were dosed with a sulfonylurea, either alone or in combination with metformin and/or pioglitazone or rosiglitazone. These 79 patients were not provided with insulin or sitagliptin.
# [2] = test system: Type II diabetic patients; assay: 2 hour glucose tolerance test during 24 week omeprazole trial (Example 4); conditions: for C-Peptide 1 hour / C-Peptide 2 hours / Glucose 1 hour / Glucose 2 hours / Insulin 1 hour / Insulin 2 hours: after 75 g glucose
# Experimental: (§1) Seven Type II diabetic patients were administered omeprazole for 24 weeks and data was obtained from fasting and following a 2 hour glucose tolerance test at 8 week intervals and compared to baseline values. Statistical comparisons and analysis were performed with a commercial program, Analyse-it, version 2.20.
# (§2) Subjects: Five males, 2 females, age range 42-68 years, mean age 54+10 years. BMI's ranged from 31 to 49, mean 38+6. All subjects had co-morbid hypertension, four had co-morbid dyslipidemia and two had co-morbid hypothyroidism. All were stable on oral diabetes medications with 7/7 on metformin, 6/7 on pioglitazone (Actos), 4/7 on a DPP-4 inhibitor, sitagliptan (Januvia) and 4/7 on a Sulfonylurea. All subjects received a physical exam, review of systems and a baseline EKG prior to initiating the PPI trial. Subjects were then seen and evaluated at monthly intervals interviewed for adverse events and monitored for medication compliance and maintenance of daily blood glucose logs.
# (§3) Design: All subjects continued on their respective oral antidiabetic medications throughout the study. Baseline data was obtained in a fasting state after an overnight fast. Subjects were then administered 75 g of glucose and blood samples obtained at 1 and 2 hours. Following collection of baseline data, subjects were administered Omeprazole Delayed-Release Capsules USP, (Apotex Inc., Toronto, Canada M9L 179), 40 mg orally twice daily and blood samples again obtained after 8, and 16 weeks. Medications were not taken on the mornings of testing. Following the 16 week sample collection, subjects were increased to 80 mg Omeprazole twice daily and blood samples again obtained at 24 weeks.
# (§4) Measurements: Helicobacter Pylori IgG was obtained on each subject as a baseline as were Hemoglobin A1c and fasting Gastrin. Each 2 hour glucose tolerance test provided fasting glucose, insulin and c-peptide as well as 1 hour and 2 hour glucose and stimulated insulin and c-peptide. All measurements were obtained through a commercial laboratory using standardized analytical methods, Quest Diagnostics Laboratory, 5850 Rogerdale Road, Houston, Tex. 77072.
# [3] = test system: Type II diabetic patients; assay: Hemoglobin A1c, Beta cell area and plasma gastrin during 24 week omeprazole trial (Example 4); conditions: for Beta Cell Area, %: calculated using the 2 hour glucose tolerance value by the method of Meier et al
# Experimental: as §1, §2, §3, §4
# Table 2 summarizes the effects of PPI administration on plasma Gastrin, Hemoglobin A1c and % Beta Cell area (calculated using the 2 hour glucose tolerance value by the method of Meier et al, Diabetes, vol 58, 1595-1603, 2009). […] Hemoglobin A1c, a measure of average blood glucose, was reduced by approximately 0.9% in this cohort, consistent with improved diabetes control (FIG. 5). Finally, the calculated Beta cell mass increased across the treatment period by approximately 25%.
# [4] = test system: Type II diabetic patients; assay: Tolerability / adverse events in 24 week omeprazole trial (Example 4); conditions: all doses (40 mg and 80 mg twice daily), 24 weeks
# Excerpt: as §2, §3
# [5] = 8 weeks PPI, Omeprazole 40 mg orally twice daily
# [6] = 16 weeks PPI, Omeprazole 40 mg orally twice daily
# [7] = 24 weeks PPI, increased to 80 mg Omeprazole twice daily after week 16
structure (smiles),measurement,setting,value
CN(C)C(=N)N=C(N)N [Metformin],Average HgbA1c,[1],7.27%
"COc1ccc2[nH]c([S+]([O-])Cc3ncc(C)c(OC)c3C)nc2c1 (centres unmarked) [Omeprazole, 5-methoxy-2-[(4-methoxy-3,5-dimethyl-2-pyridinyl)methyl]sulfinyl-1H-benzimidazole]",C-Peptide Fasting,[2]; [5],4.0
same,Glucose Fasting,[2]; [5],127
same,Insulin Fasting,[2]; [5],13.6
same,C-Peptide 1 hour,[2]; [5],7.1
same,C-Peptide 2 hours,[2]; [5],8.6***
same,Glucose 1 hour,[2]; [5],235#
same,Glucose 2 hours,[2]; [5],226
same,Insulin 1 hour,[2]; [5],38.7
same,Insulin 2 hours,[2]; [5],29.9
same,C-Peptide Fasting,[2]; [6],3.4
same,Glucose Fasting,[2]; [6],136
same,Insulin Fasting,[2]; [6],12
same,C-Peptide 1 hour,[2]; [6],6.0
same,C-Peptide 2 hours,[2]; [6],7.9#
same,Glucose 1 hour,[2]; [6],206*
same,Glucose 2 hours,[2]; [6],229**
same,Insulin 1 hour,[2]; [6],24.7
same,Insulin 2 hours,[2]; [6],36.1
same,C-Peptide Fasting,[2]; [7],3.6
same,Glucose Fasting,[2]; [7],147
same,Insulin Fasting,[2]; [7],10.9
same,C-Peptide 1 hour,[2]; [7],5.8
same,C-Peptide 2 hours,[2]; [7],7.9+
same,Glucose 1 hour,[2]; [7],251
same,Glucose 2 hours,[2]; [7],258
same,Insulin 1 hour,[2]; [7],25
same,Insulin 2 hours,[2]; [7],34
same,1 and 2 hour c-peptide secretion,[2]; after PPI administration,increased
same,Fasting insulin levels,[2]; after PPI administration,unchanged
same,Stimulated insulin secretion,"[2]; at both 1 and 2 hours, after PPI administration",increased
same,Maximum glucose excursion versus baseline,"[2]; at both 1 and 2 hours, 8 and 16 weeks, statistically significant at 16 weeks",reduced
same,Fasting blood glucose versus baseline,[2]; at both 8 and 16 weeks,reduced
same,Percent hemoglobin A1c reduction from baseline,"[3]; 8, 16 and 24 weeks after taking PPI, FIG. 5",at least 0.6%
same,"Hemoglobin A1c, %",[3]; [5],7.7%
same,Plasma Gastrin,[3]; [5],207 pg/mL
same,"Beta Cell Area, %",[3]; 8 weeks PPI,0.46%
same,"Hemoglobin A1c, %",[3]; [6],7.8%
same,Plasma Gastrin,[3]; [6],174 pg/mL
same,"Beta Cell Area, %",[3]; 16 weeks PPI,0.51%
same,"Beta Cell Area, %",[3]; 24 weeks PPI,0.40%
same,"Hemoglobin A1c, %",[3]; [7],7.9%
same,Plasma Gastrin,[3]; [7],232 pg/mL
same,Calculated Beta cell mass increase,[3]; across the treatment period,approximately 25%
same,Change in percent hemoglobin A1c,"[3]; all patients, statistically significant, FIG. 1",decrease
same,Hemoglobin A1c reduction,"[3]; in this cohort of seven patients, versus baseline",approximately 0.9%
same,Plasma gastrin versus baseline,"[3]; long term PPI administration, serum levels gradually reduced over time",markedly elevated
same,Slope of linear best fit of hemoglobin A1c,"[3]; seven type II diabetics, 24 week trial, FIG. 1",−0.021 % (HgbA1c) per week
same,Adverse events,[4],no reports of adverse events
same,Tolerability,[4],well tolerated
